Assay results published in US20250134887A1, “METHODS OF TREATING PROSTATE CANCER” (AstraZeneca AB, priority 2022, published 2025).

Assays:
patients with mCRPC = test: PROpel (NCT03732820) double-blind randomized phase III trial: efficacy and patient-reported outcomes; type: in vivo, human
From the text: The primary objective was efficacy as assessed by investigator-assessed imaging-based progression-free survival.
Patient population. Eligible patients were 18 years of age (or 19 years of age in South Korea) and had histologically or cytologically confirmed prostate adenocarcinoma with at least one documented metastatic lesion on either a bone scan, computed tomography, or magnetic resonance imaging scan. […] Docetaxel during neoadjuvant/adjuvant treatment for localized prostate cancer and the metastatic hormone-sensitive (mHSPC) stage of disease was permitted, as long as no signs of failure or disease progression occurred during or immediately after such treatment. Prior to mCRPC stage, treatment with second-generation antiandrogen agents (except abiraterone) without PSA progression/clinical progression/radiographic progression during treatment was allowed, provided the treatment was stopped at least 12 months before randomisation.
Trial design and interventions. This was a double-blind, placebo-controlled, phase Ill trial. Eligible patients were randomized (1:1) to treatment with abiraterone acetate (1000 mg once daily) in combination with either olaparib (300 mg twice daily) or placebo. All patients received prednisone or prednisolone (5 mg twice daily) as per the abiraterone acetate label requirement. Randomization was stratified by distant metastasis type (bone only/visceral/other) at baseline and by docetaxel treatment at the mHSPC stage of disease (yes or no). Study treatment continued until objective imaging-based progressive disease assessed by investigator (using Response Evaluation Criteria in Solid Tumors [RECIST 1.1] for soft tissue lesions and Prostate Cancer Working Group-3 [PCWG-3] criteria for bone lesions), unacceptable toxicity, or withdrawal of consent. Following objective disease progression, further treatment options were at the discretion of the investigator. […] Crossover from placebo to receive olaparib in combination with abiraterone acetate was not allowed.
Endpoints. The primary endpoint was imaging-based progression-free survival or death from any cause in the absence of disease progression. Sensitivity analysis by blinded independent central review and exploratory subgroup analysis of investigator-assessed imaging-based progression-free survival to assess consistency of treatment effect across potential prognostic factors were prespecified. Subgroups included HRRm status.
A key secondary endpoint was overall survival. Other secondary endpoints included time to first subsequent therapy or death (TFST), time to second progression or death (PFS2) and patient-reported outcomes. Further exploratory endpoints were objective response rate (ORR), prostate-specific antigen (PSA) response rate and time to PSA progression.
Statistical analysis. Efficacy was analyzed for the intention-to-treat population and safety was analyzed for all patients who received any amount of abiraterone acetate, olaparib, or placebo.
The first planned interim analysis of the primary endpoint of imaging-based progression-free survival is reported in this example. Imaging-based progression-free survival will be reported subsequently at a second data cutoff. Overall survival will be formally tested at all points, including a third data cutoff.
With a sample size of 796 patients, the first interim analysis was planned to occur when there had been approximately 379 progression or death events (47.6% maturity), to provide 94.1% power at a one-sided alpha of 0.014 to show a statistically significant difference in imaging-based progression-free survival between the trial arms, assuming a hazard ratio for progression or death of 0.68.
A multiple testing procedure controlled the overall one-sided type 1 error rate of 2.5%.

[1] = tested on: patients with progressive mCRPC who had not received chemotherapy; conditions: COU-AA-302; cited from earlier work
[2] = rPFS investigator assessment, FAS, All patients
[3] = rPFS, subgroup Age at randomisation: <65 years
[4] = rPFS, subgroup Age at randomisation: ≥65 years
[5] = rPFS, subgroup Docetaxel treatment at mHSPC stage
[6] = rPFS, subgroup HRRm Unknown, ctDNA test
[7] = rPFS, subgroup HRRm Unknown, tumour tissue test
[8] = rPFS, subgroup HRRm, ctDNA test (FoundationOne Liquid CDx)
[9] = rPFS, subgroup HRRm, tumour tissue test (FoundationOne CDx)
[10] = rPFS, subgroup No docetaxel treatment at mHSPC stage
[11] = rPFS, subgroup Non-HRRm, ctDNA test
[12] = rPFS, subgroup Non-HRRm, tumour tissue test
[13] = rPFS, subgroup Site of distant metastases: Bone only
[14] = rPFS, subgroup Site of distant metastases: Other
[15] = rPFS, subgroup Site of distant metastases: Visceral

CC(=O)O[C@H]1CC[C@@]2(C)C(=CC[C@@H]3[C@@H]2CC[C@]2(C)C(c4cccnc4)=CC[C@@H]32)C1 [abiraterone acetate and placebo, (3β)-17-(3-pyridinyl) androsta-5,16-dien-3-yl acetate]
second progression or death events (patients with mCRPC; PFS2, number of events): 94 | patients who received a first subsequent therapy (patients with mCRPC; TFST, number of patients): 221 | Confirmed PSA response (patients with mCRPC; human, in vivo): 69.2% | Median time to PSA progression (patients with mCRPC; human, in vivo): 12.0 months | median imaging-based progression-free survival by investigator assessment (patients with mCRPC; intention-to-treat, first interim analysis, data cutoff Jul. 30, 2021): 16.6 months | Median rPFS (patients with mCRPC; investigator assessment, FAS, All patients): 16.59 months | progression or death events, blinded independent central review (patients with mCRPC; number of events): 218 | progression or death events, investigator assessment (patients with mCRPC; number of events): 226 | ORR, number of patients with response (patients with mCRPC; of 161 patients (olaparib arm) / of 160 patients (placebo arm) with measurable disease at baseline): 77 | deaths (patients with mCRPC; overall survival analysis, number of deaths): 121 | ORR (patients with mCRPC; patients with measurable disease at baseline): 48.1% | median imaging-based progression-free survival by blinded independent central review (patients with mCRPC; prespecified sensitivity analysis): 16.4 months | Number of events/total number of patients (patients with mCRPC; [2]): 226/397 | Number of events/total number of patients (%) (patients with mCRPC; [2]): (56.9) % | Number of events/total number of patients (patients with mCRPC; [3]): 59/97 | Number of events/total number of patients (%) (patients with mCRPC; [3]): (60.8) % | Number of events/total number of patients (patients with mCRPC; [4]): 167/300 | Number of events/total number of patients (%) (patients with mCRPC; [4]): (55.7) % | Number of events/total number of patients (patients with mCRPC; [5]): 56/94 | Number of events/total number of patients (%) (patients with mCRPC; [5]): (59.6) % | Number of events/total number of patients (patients with mCRPC; [6]): 13/30 | Number of events/total number of patients (%) (patients with mCRPC; [6]): (43.3) % | Number of events/total number of patients (patients with mCRPC; [7]): 76/131 | Number of events/total number of patients (%) (patients with mCRPC; [7]): (58.0) % | Number of events/total number of patients (patients with mCRPC; [8]): 66/100 | Number of events/total number of patients (%) (patients with mCRPC; [8]): (66.0) % | Number of events/total number of patients (patients with mCRPC; [9]): 37/56 | Number of events/total number of patients (%) (patients with mCRPC; [9]): (66.1) % | Number of events/total number of patients (patients with mCRPC; [10]): 170/303 | Number of events/total number of patients (%) (patients with mCRPC; [10]): (56.1) % | Number of events/total number of patients (patients with mCRPC; [11]): 147/267 | Number of events/total number of patients (%) (patients with mCRPC; [11]): (55.1) % | Number of events/total number of patients (patients with mCRPC; [12]): 113/210 | Number of events/total number of patients (%) (patients with mCRPC; [12]): (53.8) % | Number of events/total number of patients (patients with mCRPC; [13]): 102/217 | Number of events/total number of patients (%) (patients with mCRPC; [13]): (47.0) % | Number of events/total number of patients (patients with mCRPC; [14]): 84/128 | Number of events/total number of patients (%) (patients with mCRPC; [14]): (65.6) % | Number of events/total number of patients (patients with mCRPC; [15]): 40/52 | Number of events/total number of patients (%) (patients with mCRPC; [15]): (76.9) % | Median rPFS (patients with mCRPC; subgroup Age at randomisation: <65 years): 16.36 months | Median rPFS (patients with mCRPC; subgroup Age at randomisation: ≥65 years): 16.66 months | Median rPFS (patients with mCRPC; subgroup Docetaxel treatment at mHSPC stage): 13.83 months | Median rPFS (patients with mCRPC; subgroup HRRm Unknown, tumour tissue test): 16.39 months | Median rPFS (patients with mCRPC; subgroup HRRm, ctDNA test (FoundationOne Liquid CDx)): 13.63 months | Median rPFS (patients with mCRPC; subgroup HRRm, tumour tissue test (FoundationOne CDx)): 16.62 months | Median rPFS (patients with mCRPC; subgroup No docetaxel treatment at mHSPC stage): 16.82 months | Median rPFS (patients with mCRPC; subgroup Non-HRRm, ctDNA test): 18.96 months | Median rPFS (patients with mCRPC; subgroup Non-HRRm, tumour tissue test): 16.59 months | Median rPFS (patients with mCRPC; subgroup Site of distant metastases: Bone only): 22.18 months | Median rPFS (patients with mCRPC; subgroup Site of distant metastases: Other): 13.70 months | Median rPFS (patients with mCRPC; subgroup Site of distant metastases: Visceral): 10.91 months | median radiographic progression-free survival [1]: 16.5 months
